Test results taken from ChEMBL document CHEMBL4373694 (J Med Chem, 2019).
Calls of active or inactive are those of the source. The calls are words filed in the database; no cut-off is given here.

Legend:
Homo sapiens [1] = species: Homo sapiens; assay: Inhibition of 20S proteasome beta 5i in human PBMC cells assessed as induction of PSMB5 expression at 100 nM after 3 to 72 hrs by RT-PCR analysis; assay type: cell-based
[2] = Inhibition of 20S proteasome beta 1c derived from human erythrocytes preincubated for 1 hr using Z-nLPnLD-Glo peptide as substrate by proteasome-glo caspase-like assay
Homo sapiens [3] = species: Homo sapiens; assay: Selectivity ratio, ratio of IC50 for 20S proteasome beta 5c (unknown origin) to IC50 for human 20S proteasome beta 5i
[4] = Inhibition of human 20S proteasome beta 1i
[5] = Inhibition of human 20S proteasome beta 5i preincubated for 1 hr followed by fluorescence based assay
Homo sapiens [6] = species: Homo sapiens; assay: Inhibition of 20S proteasome beta 5i in human PBMC cells assessed as induction of PSMB6 expression at 100 nM after 3 to 72 hrs by RT-PCR analysis; assay type: cell-based
[7] = Inhibition of 20S proteasome beta 5c (unknown origin) preincubated for 1 hr followed by fluorescence based assay; design: species or system Homo sapiens
Homo sapiens [8] = species: Homo sapiens; assay: Inhibition of 20S proteasome beta 5i in human PBMC cells assessed as induction of PSMB7 expression at 100 nM after 3 to 72 hrs by RT-PCR method; assay type: cell-based
Homo sapiens [9] = species: Homo sapiens; assay: Selectivity ratio, ratio of IC50 for 20S proteasome beta 5c (unknown origin) to IC50 for human 20S proteasome beta 1i
Homo sapiens [10] = species: Homo sapiens; assay: Selectivity ratio, ratio of IC50 for human 20S proteasome beta 1i to IC50 for 20S proteasome beta 5i (unknown origin)
[11] = Cytotoxicity against human pDC assessed as reduction in cell viability by CellTiter Glo assay; assay type: functional
[12] = Inhibition of 20S proteasome beta 5i/20S proteasome beta 1i in human PBMC cell lysate assessed as reduction in chymotrypsin-like activity pre-incubated for 30 mins followed by Meo-Suc-GLF-AM substrate addition and measured after 30 mins by fluorescence assay; assay type: subcellular
[13] = Cytotoxicity against human plasmablasts assessed as reduction in cell viability by CellTiter Glo assay; assay type: functional
PBMC [14] = assay: Cytotoxicity against human PBMC cells assessed as reduction in cell viability by CellTiter Glo assay; assay type: functional, cell-based
Homo sapiens [15] = species: Homo sapiens; assay: Selectivity ratio, ratio of IC50 for 20S proteasome beta 1c (unknown origin) to IC50 for human 20S proteasome beta 5i
PBMC [16] = assay: Induction of apoptosis in human PBMC cells at 10 uM after 12 hrs by caspase 3,7-glo assay; assay type: functional, cell-based
PBMC [17] = assay: Induction of ubiquitin accumulation in human PBMC cells at 100 nM after 6 hrs by Western blot analysis; assay type: functional, cell-based
Homo sapiens [18] = species: Homo sapiens; assay: (§1) Cytotoxicity against anti-CD3/CD28-stimulated human CD4-positive T cells with CRISP/CAS9 20S proteasome beta 5c knockout assessed as reduction in cell viability measured on day 8 by CellTiter Glo assay relative to control; assay type: functional
Homo sapiens [19] = species: Homo sapiens; assay: Inhibition of 20S proteasome beta 5i in human PBMC cells assessed as upregulation of 20S proteasome beta 5c level at 100 nM after 24 to 72 hrs by Western blot analysis; assay type: cell-based
[20] = as §1; assay type: functional
[21] = Cytotoxicity against anti-CD3/CD28-stimulated human CD4-positive T cells with CRISP/CAS9 20S proteasome beta 5i knockout assessed as reduction in cell viability measured on day 8 by CellTiter Glo assay relative to control; assay type: functional

| SMILES | IC50 [2] [µM] | Ratio IC50 (Homo sapiens [3]) | IC50 [4] [µM] | IC50 [5] [µM] | IC50 [7] [µM] | Ratio IC50 (Homo sapiens [9]) | IC50 [12] [µM] | other results |
| --- | --- | --- | --- | --- | --- | --- | --- | --- |
| COc1ccc(C[C@H](NC(=O)[C@H](C)NC(=O)CN2CCOCC2)C(=O)N[C@@H](Cc2ccccc2)C(=O)[C@@]2(C)CO2)cc1 | 13 | 9 to 20 | 0.79 | 0.145 | 1.3 | 1.6 |  | inhibition (Homo sapiens [1]): Active; inhibition (Homo sapiens [6]): Active; inhibition (Homo sapiens [8]): Active |
| Cc1c(C(=O)N[C@@H](CC(C)C)B(O)O)nnn1-c1ccccc1 | 18 |  | 0.041 | 0.13 | > 10 |  | 0.31 |  |
| COC[C@H](NC(=O)c1cc(C)on1)C(=O)N[C@H](C(=O)N[C@@H](CC(C)C)C(=O)[C@@]1(C)CO1)C1CC1 | 11 | 0.04 | 0.69 | 2.1 | 0.078 | 0.11 |  | inhibition (Homo sapiens [1]): Active; inhibition (Homo sapiens [6]): Active; inhibition (Homo sapiens [8]): Active |
| CC(C)C[C@H](NC(=O)c1nnc(Cc2ccccc2)[nH]1)B(O)O | 0.061 |  | 0.0063 | 0.019 | 0.35 |  | 0.2 |  |
| Cc1ccc(C[C@H](NC(=O)c2cc(Cc3ccccc3)on2)B2O[C@@H]3C[C@@H]4C[C@@H](C4(C)C)[C@]3(C)O2)c(C)c1 | > 20 |  | 0.092 | 0.0041 | 1.3 |  | 0.08 |  |
| C=CC(=O)N(CC(=O)N[C@@H](Cc1ccc(C)cc1C)B(O)O)c1ccccc1F | > 20 | 283 to 296 | 2.2 | 0.0081 | 2.4 | 1.1 |  | Activity (PBMC [16]): inactive; Ratio IC50 (Homo sapiens [10]): 247; inhibition (Homo sapiens [1]): Active; Activity (PBMC [17]): inactive; IC50 [11]: 6 µM; Activity (Homo sapiens [18]): Active; inhibition (Homo sapiens [6]): Active; IC50 [13]: 0.67 µM; inhibition (Homo sapiens [19]): Active; inhibition (Homo sapiens [8]): Active; IC50 (PBMC [14]): 5.7 µM; Ratio IC50 (Homo sapiens [15]): > 2400 |
| CC(C)C[C@H](NC(=O)c1cc(Cc2ccccc2)on1)B(O)O | 1.4 |  | 0.0094 | 0.023 | 3 |  | 0.085 |  |
| Cc1ccc(C[C@H](NC(=O)c2nnn(Cc3ccccc3)c2C)B2O[C@@H]3C[C@@H]4C[C@@H](C4(C)C)[C@]3(C)O2)c(C)c1 | > 20 | 2200 | 8.5 | 0.0041 | 9.1 |  | 0.079 | Ratio IC50 (Homo sapiens [10]): 2100; IC50 [11]: > 10 µM; IC50 [13]: 9.3 µM; IC50 (PBMC [14]): > 10 µM; Ratio IC50 (Homo sapiens [15]): > 4800 |
| CC(C)C[C@H](NC(=O)c1cn(Cc2ccccc2)nn1)B(O)O | 0.071 | 220 to 710 | 0.00055 | 0.004 | 0.89 | 1300 to 3400 | 0.045 | Ratio IC50 (Homo sapiens [10]): 0.14 |
| Cc1ccc(C[C@H](NC(=O)c2cn(Cc3ccccc3)nn2)B2O[C@@H]3C[C@@H]4C[C@@H](C4(C)C)[C@]3(C)O2)c(C)c1 | > 20 |  | 0.017 | 0.0012 | 0.42 |  | 0.011 |  |
| O=C(N[C@@H](Cc1ccc(Cl)cc1)B(O)O)c1cnn(-c2ccccc2)c1 | > 20 |  | 0.012 | 0.0068 | 3.2 |  | 0.13 |  |
| CC(C)C[C@H](NC(=O)c1cn(C2CCCCC2)nn1)B(O)O | 0.48 | 710 | 0.00085 | 0.0041 | 2.9 | 1300 to 3400 | 0.06 | Ratio IC50 (Homo sapiens [10]): 0.2; IC50 [11]: 3.7 µM; IC50 [13]: 2.9 µM; IC50 (PBMC [14]): 7.3 µM; Ratio IC50 (Homo sapiens [15]): 120 |
| O=C(N[C@@H](Cc1ccc(Cl)cc1)B(O)O)c1cn(-c2ccccc2)nn1 | 5.5 |  | 0.015 | 0.00091 | 0.064 |  | 0.0032 |  |

Second part, led by results:

| IC50 [2] [µM] | Ratio IC50 (Homo sapiens [3]) | IC50 [4] [µM] | IC50 [5] [µM] | IC50 [7] [µM] | Ratio IC50 (Homo sapiens [9]) | IC50 [12] [µM] | SMILES | other results |
| --- | --- | --- | --- | --- | --- | --- | --- | --- |
| 1.4 | 17 | 0.0081 | 0.0022 | 0.037 | 5.2 | 0.034 | COc1ccc(C(=O)NCCn2cc(C(=O)N[C@@H](CC(C)C)B(O)O)nn2)c(OC)c1OC | Ratio IC50 (Homo sapiens [10]): 5.2; inhibition (Homo sapiens [1]): Active; IC50 [11]: 0.022 µM; inhibition (Homo sapiens [6]): Active; IC50 [13]: 0.054 µM; inhibition (Homo sapiens [8]): Active; IC50 (PBMC [14]): 0.1 µM; Ratio IC50 (Homo sapiens [15]): 640 |
| > 20 |  | 0.11 | 0.087 | 7.7 |  | 0.47 | O=C(N[C@@H](Cc1ccc(Cl)cc1)B(O)O)c1cnn(Cc2ccccc2)c1 |  |
| > 20 |  | 0.015 | 0.04 | 7.3 |  | 0.29 | Cc1c(C(=O)N[C@@H](CC(C)C)B(O)O)nnn1Cc1ccccc1 | Ratio IC50 (Homo sapiens [10]): 0.4 |
| 0.53 |  | 0.0039 | 0.00054 | 0.046 |  | 0.0023 | O=C(N[C@@H](Cc1ccc(Cl)cc1)B(O)O)c1cn(Cc2ccccc2)nn1 |  |
| > 20 |  | 0.05 | 0.00068 | 0.27 |  | 0.0069 | Cc1ccc(C[C@H](NC(=O)c2cn(-c3ccccc3)nn2)B2O[C@@H]3C[C@@H]4C[C@@H](C4(C)C)[C@]3(C)O2)c(C)c1 |  |
| > 20 |  | 0.019 | 0.36 | > 10 |  | 8.9 | CC(C)C[C@H](NC(=O)c1ncn(Cc2ccccc2)n1)B(O)O |  |
| 4.2 |  | 0.00058 | 0.0014 | 0.76 | 1300 to 3400 | 0.025 | CC(C)C[C@H](NC(=O)c1cn(-c2ccccc2)nn1)B(O)O |  |
| > 20 | 174 | 0.009 | 0.055 | 9.6 |  | 0.25 | CC(C)C[C@H](NC(=O)c1cn(C)nn1)B1O[C@@H]2C[C@@H]3C[C@@H](C3(C)C)[C@]2(C)O1 |  |
| 0.032 |  | 0.0079 |  |  |  |  | CC(C)C[C@H](NC(=O)[C@H](Cc1ccccc1)NC(=O)c1cnccn1)B(O)O [BORTEZOMIB] | inhibition (Homo sapiens [1]): Active; IC50 [11]: 0.0052 µM; fold change (FC) [20]: 3; inhibition (Homo sapiens [6]): Active; fold change (FC) [21]: 3; IC50 [13]: 0.0039 µM; inhibition (Homo sapiens [8]): Active; IC50 (PBMC [14]): 0.0027 µM |
